Assay results as given in patent US7342012B2, “Inhibitors of αLβ2 mediated cell adhesion” (Mitsubishi Tanabe Pharma Corporation, priority 1999, dated 2008).

A melting point of 122.7 °C was found for `NC(=O)[C@H]1CN2C(=O)N(c3cc(Cl)cc(Cl)c3)C(=O)[C@]2(Cc2ccc(OC(F)(F)F)cc2)C1` [Example 312, (5R, 7R)-5-[4-(Trifluoromethoxy)benzyl]-3-(3,5-dichlorophenyl)-7-carbamoyl-1,3-diazabicyclo[3.3.0]octane-2,4-dione] in this work. A melting point of 106.1 °C was found for `CN(C)C(=O)C1CN2C(=O)N(c3cc(Cl)cc(Cl)c3)C(=O)C2(Cc2ccc(OC(F)(F)F)cc2)C1` (centres unmarked) [Example 313] in this work. A melting point of 212.6 °C was found for `CNC(=O)C1CN2C(=O)N(c3cc(Cl)cc(Cl)c3)C(=O)C2(Cc2ccc(OC(F)(F)F)cc2)C1` (centres unmarked) [Example 314] in this work. A melting point of 140.3 °C was found for `NC(=O)C1CN2C(=O)N(c3cc(Cl)cc(Cl)c3)C(=O)C2(Cc2ccc(OC(F)(F)F)cc2)C1` (centres unmarked) [Example 317] in this work. A melting point of 122.7 °C was found for `CNC(=O)C1CN2C(=O)N(c3cc(Cl)cc(Cl)c3)C(=O)C2(Cc2ccc(OC(F)(F)F)cc2)C1` (centres unmarked) [Example 319] in this work.
